Columns and labels:
Assay in all cases: MIC panel of challenge pathogens (CLSI)
Format in all cases: cell-based
Bacillus cereus NCTC6349 = conditions: Bacillus cereus NCTC6349
Experimental: (§1) The inocula for each bacterial strain were prepared by picking 5-10 distinct colonies from the culture plates and suspending them in the appropriate broth as per Clinical and Laboratory Standards Institute (CLSI) guidelines M07-A8, M24-A or M11-A7 as appropriate. The inoculum was resuspended by vigorous shaking on a vortex mixer for 15 s. The turbidity was then adjusted to McFarland standard 0.5 ([…]). The inoculum was further diluted in the appropriate media for MIC tests to give a final inoculum in each well of 2-8×10^5 CFU/ml. MICs were tested in the appropriate broth in accordance with the appropriate CLSI guidelines.
(§2) A stock solution of each compound was prepared at a concentration of 1.28 g/L in DMSO. The stock was further diluted in the appropriate media to give a top starting concentration of 128 mg/L in the assay. 100 μL of the appropriate media, as per CLSI guidelines, was dispensed into each well in columns 2-12. 200 μL of the each compound solution (at 256 mg/L) was dispensed into each well in column 1. 100 μL aliquots were pipetted from column 1 wells and dispensed into column 2 with a multichannel pipette (±2% coefficient of variation) thus diluting two-fold. 100 μL samples were then pipetted from column 2 wells and dispensed into column 3. The process was repeated through to column 10. The final 100 μL of diluted drug from column 10 was then discarded. Row 11 acted as a positive control (no compound, but organisms added), Row 12 acted as a negative control (no compound, and no organisms added).
(§3) 100 μL of the appropriate inoculum suspension in the appropriate media, as per CLSI guidelines, was added to the appropriate wells. […] All plates were incubated in the dark under aerobic or anaerobic conditions at 30-37° C. for 24-48 hours, according to the appropriate CLSI guideline. Plates were read visually 24-48 hours post inoculation. Endpoints of 100% inhibition were determined (CLSI interpretation endpoints following visual examination).
(§4) MIC50, MIC80, and 100% inhibition results are reported below in μg/mL in the following Tables, indicating each compound tested against a given species and strain: […]

[1] = tested on: Enterococcus faecalis ATCC29212; conditions: Enterococcus faecalis ATCC29212
Experimental: as §1, §2, §3, §4

[2] = tested on: Enterococcus faecalis ATCC51299; conditions: Enterococcus faecalis ATCC51299
Experimental: as §1, §2, §3, §4

[3] = tested on: Enterococcus faecium ATCC700221; conditions: Enterococcus faecium ATCC700221
Experimental: as §1, §2, §3, §4

[4] = tested on: Staphylococcus aureus ATCC43300; conditions: Staphylococcus aureus ATCC43300
Experimental: as §1, §2, §3, §4

[5] = tested on: Staphylococcus aureus AUR131 007035; conditions: AUR131007035, Staphylococcus aureus AUR131 007035
Experimental: as §1, §2, §3, §4

[6] = tested on: Staphylococcus aureus AUR58 7005; conditions: AUR587005, Staphylococcus aureus AUR58 7005
Experimental: as §1, §2, §3, §4

[7] = tested on: Staphylococcus aureus AUR59 7005; conditions: AUR597005, Staphylococcus aureus AUR59 7005
Experimental: as §1, §2, §3, §4

[8] = tested on: Staphylococcus aureus AUR60 7005; conditions: AUR607005, Staphylococcus aureus AUR60 7005
Experimental: as §1, §2, §3, §4

[9] = tested on: Staphylococcus aureus EUP MRSA002; conditions: EUPMRSA002, Staphylococcus aureus EUP MRSA002
Experimental: as §1, §2, §3, §4

[10] = tested on: Staphylococcus aureus EUP MRSA004; conditions: EUPMRSA004, Staphylococcus aureus EUP MRSA004
Experimental: as §1, §2, §3, §4

[11] = tested on: Staphylococcus aureus EUP SAU040; conditions: EUPSAU040, Staphylococcus aureus EUP SAU040
Experimental: as §1, §2, §3, §4

[12] = tested on: Staphylococcus aureus NRS1 (ATCC700699); conditions: Staphylococcus aureus NRS1 (ATCC700699)
Experimental: as §1, §2, §3, §4

[13] = tested on: Staphylococcus aureus NRS2 (ATCC700698); conditions: Staphylococcus aureus NRS2 (ATCC700698)
Experimental: as §1, §2, §3, §4

[14] = tested on: Staphylococcus aureus NRS382; conditions: Staphylococcus aureus NRS382
Experimental: as §1, §2, §3, §4

[15] = tested on: Staphylococcus aureus NRS383; conditions: Staphylococcus aureus NRS383
Experimental: as §1, §2, §3, §4

[16] = tested on: Staphylococcus aureus NRS384; conditions: Staphylococcus aureus NRS384
Experimental: as §1, §2, §3, §4

[17] = tested on: Staphylococcus epidermidis NRS122; conditions: Staphylococcus epidermidis NRS122
Experimental: as §1, §2, §3, §4

[18] = tested on: Staphylococcus epidermidis NRS7; conditions: Staphylococcus epidermidis NRS7
Experimental: as §1, §2, §3, §4

Cc1cc(Cl)ccc1-c1cc(-c2nnn[nH]2)sc1-c1ccc(Cl)cc1C [DNM0488, 5-(4,5-Bis(4-chloro-2-methylphenyl)thiophen-2-yl)-1H-tetrazole]
2 µg/mL: MIC ([17]; read-out: 100% inhibition) | MIC80 ([17]; read-out: MIC80 (80%))
≤ 0.25 µg/mL: MIC (Bacillus cereus NCTC6349; read-out: 100% inhibition) | MIC50 (Bacillus cereus NCTC6349; read-out: MIC50 (50%)) | MIC80 (Bacillus cereus NCTC6349; read-out: MIC80 (80%)) | MIC ([12]; read-out: 100% inhibition) | MIC50 ([12]; read-out: MIC50 (50%)) | MIC80 ([12]; read-out: MIC80 (80%))
1 µg/mL: MIC ([6]; read-out: 100% inhibition) | MIC ([9]; read-out: 100% inhibition) | MIC80 ([9]; read-out: MIC80 (80%)) | MIC50 ([17]; read-out: MIC50 (50%))
0.5 µg/mL: MIC ([1]; read-out: 100% inhibition) | MIC50 ([1]; read-out: MIC50 (50%)) | MIC80 ([1]; read-out: MIC80 (80%)) | MIC ([2]; read-out: 100% inhibition) | MIC50 ([2]; read-out: MIC50 (50%)) | MIC80 ([2]; read-out: MIC80 (80%)) | MIC ([3]; read-out: 100% inhibition) | MIC ([4]; read-out: 100% inhibition) | MIC50 ([4]; read-out: MIC50 (50%)) | MIC80 ([4]; read-out: MIC80 (80%)) | MIC ([5]; read-out: 100% inhibition) | MIC50 ([5]; read-out: MIC50 (50%)) | MIC80 ([5]; read-out: MIC80 (80%)) | MIC50 ([6]; read-out: MIC50 (50%)) | MIC80 ([6]; read-out: MIC80 (80%)) | MIC ([7]; read-out: 100% inhibition) | MIC50 ([7]; read-out: MIC50 (50%)) | MIC80 ([7]; read-out: MIC80 (80%)) | MIC ([8]; read-out: 100% inhibition) | MIC50 ([8]; read-out: MIC50 (50%)) | MIC80 ([8]; read-out: MIC80 (80%)) | MIC50 ([9]; read-out: MIC50 (50%)) | MIC ([10]; read-out: 100% inhibition) | MIC50 ([10]; read-out: MIC50 (50%)) | MIC80 ([10]; read-out: MIC80 (80%)) | MIC ([11]; read-out: 100% inhibition) | MIC50 ([11]; read-out: MIC50 (50%)) | MIC80 ([11]; read-out: MIC80 (80%)) | MIC ([13]; read-out: 100% inhibition) | MIC50 ([13]; read-out: MIC50 (50%)) | MIC80 ([13]; read-out: MIC80 (80%)) | MIC ([14]; read-out: 100% inhibition) | MIC50 ([14]; read-out: MIC50 (50%)) | MIC80 ([14]; read-out: MIC80 (80%)) | MIC ([15]; read-out: 100% inhibition) | MIC50 ([15]; read-out: MIC50 (50%)) | MIC80 ([15]; read-out: MIC80 (80%)) | MIC ([16]; read-out: 100% inhibition) | MIC50 ([16]; read-out: MIC50 (50%)) | MIC80 ([16]; read-out: MIC80 (80%)) | MIC ([18]; read-out: 100% inhibition)
0.25 µg/mL: MIC50 ([3]; read-out: MIC50 (50%)) | MIC80 ([3]; read-out: MIC80 (80%)) | MIC50 ([18]; read-out: MIC50 (50%)) | MIC80 ([18]; read-out: MIC80 (80%))
